Experimental data reported in patent US20230303540A1 (Merck Sharp & Dohme LLC, priority 2020, published 2023).

Molecular target: GST-tagged truncated human mutant G2019S LRRK2 (Homo sapiens, UniProt Q5S007, G2019S)
Assay: LRRK2 G2019S Km ATP LanthaScreen assay
Type: biochemical
Details: 134 μM ATP (Km ATP), LRRKtide substrate, mean IC50 values; read-out: LRRK2 pIC50 (converted)
Experimental: Unless otherwise noted, all reactions are magnetically stirred. Unless otherwise noted, when diethyl ether is used in the experiments described below, it is Fisher ACS certified material and is stabilized with BHT. Unless otherwise noted, “concentrated” and/or “solvent removed under reduced pressure” means evaporating the solvent from a solution or mixture using a rotary evaporator or vacuum pump. Unless otherwise noted, flash chromatography is carried out on a Teledyne Isco (Lincoln, NE), Analogix (Burlington, WI), or Biotage (Stockholm, SWE) automated chromatography system using a commercially available cartridge as the column. Columns may be purchased from Teledyne Isco, Analogix, Biotage, Varian (Palo Alto, CA), or Supelco (Bellefonte, PA) and are usually filled with silica gel as the stationary phase. Reverse phase prep-HPLC conditions, where used, can be found at the end of each experimental section. Aqueous solutions were concentrated on a Genevac (Ipswich, ENG) or by freeze-drying/lyophilization. Unless otherwise noted, all LRRK2 pIC50 data presented in tables refers to the LRRK2 G2019S Km ATP LanthaScreen™ assay (Life Technologies Corp., Carlsbad, CA) that is described in the Biological Assay section.
The IC50 values reported herein were measured as follows.
Biological Assay: LRRK2 Km ATP LanthaScreen™ Assay
The LRRK2 kinase activity reported herein as IC50 values was determined with LanthaScreen™ technology from Life Technologies Corporation (Carlsbad, CA) using GST-tagged truncated human mutant G2019S LRRK2 in the presence of the fluorescein-labeled peptide substrate LRRKtide, also from Life Technologies. The data presented for the Km ATP LanthaScreen™ Assay represents mean IC50 values based on several test results and may have reasonable deviations depending on the specific conditions and reagents used. Assays were performed in the presence of 134 μM ATP (Km ATP). Upon completion, the assay was stopped and phosphorylated substrate detected with a terbium (Tb)-labeled anti-pERM antibody (cat. no. PV4898). The compound dose response was prepared by diluting a 10 mM stock of compound to a maximum concentration of 9.99 μM in 100% dimethylsulfoxide followed by custom fold serial dilution in dimethylsulfoxide nine times. Twenty nanoliters of each dilution was spotted via a Labcyte Echo onto a 384-well black-sided plate (Corning 3575) followed by 15 μl of a 1.25 nM enzyme solution in 1× assay buffer (50 mM Tris pH 8.5, 10 mM MgCl2, 0.01% Brij-35, 1 mM EGTA, 2 mM dithiothreitol, 0.05 mM sodium orthovanadate). Following a 15-minute incubation at room temperature, the kinase reaction was started with the addition of 5 μl of 400 nM fluorescein-labeled LRRKtide peptide substrate and 134 μM ATP solution in 1× assay buffer. The reaction was allowed to progress at ambient temperature for 90 minutes. The reaction was then stopped by the addition of 20 μl of TR-FRET Dilution Buffer (Life Technologies, Carlsbad, CA) containing 2 nM Tb-labeled anti-phospho LRRKtide antibody and 10 mM EDTA (Life Technologies, Carlsbad, CA). After an incubation of 1 hour at room temperature, the plate was read on an EnVision multimode plate reader (Perkin Elmer, Waltham, MA) with an excitation wavelength of 337 nm (Laser) and a reading emission at both 520 and 495 nm. Compound IC50s were interpolated from nonlinear regression best fits of the log of the final compound concentration, plotted as a function of the 520/495-nm emission ratio using Activity base. Abase uses a 4 parameter (4P) logistic fit based on the Levenberg-Marquardt algorithm.

SMILES | IC50 [nM]
CC1CCC12CN(c1cc3nc(Nc4cnn(C5(C)CC5)c4Cl)ncc3cc1Cl)C2 (single isomer, unassigned) [Ex-4.25, (R) or (S) 6-chloro-N-[5-chloro-1-(1-methylcyclopropyl)-1H-pyrazol-4-yl]-7-(5-methyl-2-azaspiro[3.3]heptan-2-yl)quinazolin-2-amine] | 570
CC(C)(C)n1ncc(Nc2ncc3cc(Cl)c(N4CCC(N5CC(F)(F)C5)CC4)cc3n2)c1Cl [Ex-4.33, N-(1-tert-butyl-5-chloro-1H-pyrazol-4-yl)-6-chloro-7-[4-(3,3-difluoroazetidin-1-yl)piperidin-1-yl]quinazolin-2-amine] | 4.75
CC1CN(C2CCN(c3cc4nc(Nc5cnn(C6CC6)c5Cl)ncc4cc3Cl)CC2)C1 [Ex-1.43, 6-chloro-N-(5-chloro-1-cyclopropyl-1H-pyrazol-4-yl)-7-[4-(3-methylazetidin-1-yl)piperidin-1-yl]quinazolin-2-amine] | 12.7
Cc1nsc(Nc2ncc3ccc(N4C(=O)OC[C@@H]4C)cc3n2)c1C1CC1 [Ex-7.8, (4S)-3-{2-[(4-cyclopropyl-3-methyl-1,2-thiazol-5-yl)amino]quinazolin-7-yl}-4-methyl-1,3-oxazolidin-2-one] | 11
Cc1cc2cnc(Nc3cnn(C4CC4)c3Cl)nc2cc1N1CCN(C2(C)COC2)CC1 [Ex-5.10, N-(5-chloro-1-cyclopropyl-1H-pyrazol-4-yl)-6-methyl-7-[4-(3-methyloxetan-3-yl)piperazin-1-yl]quinazolin-2-amine] | 5.67
FC1CN(C2CCN(c3cc4nc(Nc5cnn(C6CC6)c5Cl)ncc4cc3Cl)CC2)C1 [Ex-1.27, 6-chloro-N-(5-chloro-1-cyclopropyl-1H-pyrazol-4-yl)-7-[4-(3-fluoroazetidin-1-yl)piperidin-1-yl]quinazolin-2-amine] | 0.778
Cc1c(Nc2ncc3cc(Cl)c(N4CCN(C5COCC5O)CC4)cc3n2)cnn1CC(F)F (single isomer, unassigned) [Ex-6.26, (3S,4S) or (3R,4R) 4-[4-(6-chloro-2-{[1-(2,2-difluoroethyl)-5-methyl-1H-pyrazol-4-yl]amino}quinazolin-7-yl)piperazin-1-yl]oxolan-3-ol] | 11.5
Cc1c(Nc2ncc3cc(Cl)c(N4CCN(C5COCC5O)CC4)cc3n2)cnn1C (single isomer, unassigned) [Ex-6.24, (3S,4S) or (3R,4R) 4-(4-{6-chloro-2-[(1,5-dimethyl-1H-pyrazol-4-yl)amino]quinazolin-7-yl}piperazin-1-yl)oxolan-3-ol] | 0.603
CO[C@H]1C[C@H](n2ncc(Nc3ncc4cc(Cl)c(N5CCC(C)(O)CC5)cc4n3)c2C)C1 [Ex-6.13, 1-(6-chloro-2-{[1-(trans-3-methoxycyclobutyl)-5-methyl-1H-pyrazol-4-yl]amino}quinazolin-7-yl)-4-methylpiperidin-4-ol] | 0.976
CC1(N2CCN(c3cc4nc(Nc5cnn(C6(C(F)(F)F)CC6)c5Cl)ncc4cc3Cl)CC2)COC1 [Ex-3.24, 6-chloro-N-{5-chloro-1-[1-(trifluoromethyl)cyclopropyl]-1H-pyrazol-4-yl}-7-[4-(3-methyloxetan-3-yl)piperazin-1-yl]quinazolin-2-amine] | 3.68
Cc1c(Nc2ncc3cc(Cl)c(N4CCC(C)(O)CC4)cc3n2)cnn1C1CC1 [Ex-6.4, 1-{6-chloro-2-[(1-cyclopropyl-5-methyl-1H-pyrazol-4-yl)amino}quinazolin-7-yl}-4-methylpiperidin-4-ol] | 1.92
CC1(N2CCN(c3cc4cc(Nc5cnn(C6CC6)c5Cl)ncc4cc3Cl)CC2)COCC1O (single isomer, unassigned) [Ex-6.54, (3S,4S) or (3R,4R) 4-(4-(7-chloro-3-((5-chloro-1-cyclopropyl-1H-pyrazol-4-yl)amino)isoquinolin-6-yl)piperazin-1-yl)-4-methyltetrahydrofuran-3-ol] | 1.21
CC(C)(O)Cn1cc(Nc2ncc3cc(Cl)c(N4CCC(O)CC4)cc3n2)cn1 [Ex-3.10, 1-(6-chloro-2-{[1-(2-hydroxy-2-methylpropyl)-1H-pyrazol-4-yl]amino}quinazolin-7-yl)piperidin-4-ol] | 0.407
